Measured values as given in patent publication USRE46511E1, “Fused pyrimidine derivatives for inhibition of tyrosine kinase activity” (HANMI SCIENCE CO., LTD., priority 2010, dated 2017).
pIC50: −log10 of the molar value. Where two headings read alike, the source gives them in different places.

What was measured:
BTK = biological target: T1, BTK (Homo sapiens, UniProt Q06187); experiment: z-lyte kinase assay, BTK; type: biochemical
T1 construct: purchased Invitrogen
Experimental: (§1) The inhibiting activities of the inventive compounds obtained in Examples 1 to 237 against EGFR WT and EGFR L858R/T790M kinase were determined using z-lyte kinase assay kit (Invitrogen, PV3191). The kinases used in the test were purchased from Invitrogen.
(§2) The compounds obtained in Examples 1 to 237 were each prepared to 10 mM DMSO solution, and a solution containing 4% DMSO were prepared therefrom and diluted to a concentration of 1 μM to 0.0001 μM. […] The test was conducted in a 384 well polystyrene flat-bottomed plates. 5 μl of the diluted solution of each compound was added to each well, and 10 μl of a mixture of peptide substrate and kinase in a suitable concentration and 5 μl of 5˜300 μM ATP solution were successively added thereto and the plate was incubated in a stirrer at room temperature for 60 minutes. After 60 mins, 10 μl of coloring reagent was added to the resulting mixture to initiate a fluorescence reaction of peptide substrate and a terminating solution was added thereto for terminating the reaction. A fluorescence value of each well was determined with a fluorescence meter (Molecular Device) at 400 nm (excitation filter) and 520 nm (emission filter). […] The calculation of IC50 and the result analysis were carried out by using Microsoft Excel.
(§3) The inhibiting activities of the inventive compounds obtained in Examples 1 to 237 against BTK and JAK3 kinases were determined, respectively. The procedure of Test Example 2 was repeated except that BTK and JAK3 kinases (Invitrogen) were employed instead of using the EGFR kinase.

JAK3 = biological target: T2, JAK3 (Homo sapiens, UniProt P52333); experiment: z-lyte kinase assay, JAK3; type: biochemical
T2 construct: purchased Invitrogen
T2 sequence (P52333 1-1124): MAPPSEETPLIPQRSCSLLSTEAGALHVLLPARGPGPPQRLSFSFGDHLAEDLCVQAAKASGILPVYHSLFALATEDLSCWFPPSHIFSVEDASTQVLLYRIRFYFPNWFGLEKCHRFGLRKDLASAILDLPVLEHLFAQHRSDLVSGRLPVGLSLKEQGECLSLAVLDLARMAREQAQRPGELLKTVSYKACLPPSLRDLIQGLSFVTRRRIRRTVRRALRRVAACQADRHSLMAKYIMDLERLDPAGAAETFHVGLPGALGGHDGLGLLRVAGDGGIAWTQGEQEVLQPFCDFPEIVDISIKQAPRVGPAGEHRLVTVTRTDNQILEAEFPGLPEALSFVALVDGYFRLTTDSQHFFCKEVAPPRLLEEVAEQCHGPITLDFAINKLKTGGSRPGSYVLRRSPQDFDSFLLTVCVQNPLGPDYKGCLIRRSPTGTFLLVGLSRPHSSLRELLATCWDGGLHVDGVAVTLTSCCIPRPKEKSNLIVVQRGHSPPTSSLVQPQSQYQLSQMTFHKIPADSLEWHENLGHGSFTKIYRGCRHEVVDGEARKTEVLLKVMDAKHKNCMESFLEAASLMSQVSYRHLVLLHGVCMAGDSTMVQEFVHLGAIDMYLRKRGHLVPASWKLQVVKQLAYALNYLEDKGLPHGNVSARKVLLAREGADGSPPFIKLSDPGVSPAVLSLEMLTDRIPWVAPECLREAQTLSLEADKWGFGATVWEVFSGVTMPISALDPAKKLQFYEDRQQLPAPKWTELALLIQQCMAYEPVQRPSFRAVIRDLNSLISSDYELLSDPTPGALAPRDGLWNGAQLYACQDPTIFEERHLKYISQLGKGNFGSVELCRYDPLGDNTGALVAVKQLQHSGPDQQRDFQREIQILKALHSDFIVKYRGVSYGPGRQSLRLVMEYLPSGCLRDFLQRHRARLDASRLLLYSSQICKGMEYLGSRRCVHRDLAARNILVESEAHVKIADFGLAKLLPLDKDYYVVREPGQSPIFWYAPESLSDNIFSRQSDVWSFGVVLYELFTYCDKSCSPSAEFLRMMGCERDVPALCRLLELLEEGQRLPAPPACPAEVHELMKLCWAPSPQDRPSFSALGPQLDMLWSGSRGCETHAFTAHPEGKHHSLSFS
Experimental: as §1, §2, §3

[1] = test system: HCC827 (EGFR DelE746_A750); experiment: Inhibition test for growth of cancer cell expressing EGFR (SRB), HCC827; type: cell-based; conditions: HCC827 cells, 72 hours, SRB, read-out: GI50 HCC827 EGFR DelE746_A750;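 further: cells in 96-well plates exposed to tenfold serial dilutions from 100 µM, fixed with trichloroacetic acid, SRB-stained, absorbance read at 540 nm, DMSO under 1%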
Experimental: A431 cell line was incubated in a high-glucose DMEM (Dulbecco's Modified Eagle's Medium) supplemented with 10% fetal bovine serum (FBS) and 1% penicillin/streptomycin (Gibco BRL), and HCC827 and NCI-H1975 cell lines were incubated in an RPMI medium supplemented with 10% FBS, 1% penicillin/streptomycin and 1% sodium pyruvate.
The cancer cell lines stored in a liquid nitrogen tank were each quickly thawed at 37° C., and centrifuged to remove the medium. The resulting cell pellet was mixed with a culture medium, incubated in a culture flask at 37° C. under 5% CO2 for 2 to 3 days, and the medium was removed. The remaining cells were washed with DPBS (Dulbecco's Phosphate Buffered Saline) and separated from the flask by using Tripsin-EDTA. […] 100 μl of the diluted cell solution was added to each well of a 96-well plate, and incubated at 37° C. under 5% CO2 for 1 day.
In case that the test compound was not soluble in DMSO, 1% HCl was added thereto and treated in a 40° C. water bath for 30 mins until a complete dissolution was attained. The DMSO solution containing test compound was diluted with a culture medium to a final concentration of 100 μM, and then diluted 10 times serially to 10^−6 μM (a final concentration of DMSO was less than 1%).
The medium was removed from each well of the 96-well plate. And then, 100 μl of a test compound solution was added to each well holding the cultured cells, and the plate was incubated at 37° C. under 5% CO2 for 72 hours (except that NCI-H1975 cells were incubated for 48 hours). After removing the medium from the plate, 50 μA of 10% trichloroacetic acid was added to each well, and the plate was kept at 4° C. for 1 hour to fix the cells to the bottom of the plate. The added 10% trichloroacetic acid solution was removed from each well, the plate was dried, 100 μA of an SRB (Sulforhodamine-B) dye solution at a concentration of 0.4% dissolved in 1% acetic acid was added thereto, and the resulting mixture was reacted for 10 mins at room temperature. After removing the dye solution, the plate was washed with water, and well dried. When the dye solution was not effectively removed by water, 1% acetic acid was used. 150 μA of 10 mM trisma base was added to each well, and the absorbance at 540 nm wavelength was determined with a microplate reader.

[2] = test system: NCI-H1975 (EGFR L858R/T790M); experiment: Inhibition test for growth of cancer cell expressing EGFR (MTS), NCI-H1975; type: cell-based; conditions: NCI-H1975 cells, 48 hours, MTS, read-out: GI50 NCI-H1975 EGFR L858R/T790M

T1 sequence (Q06187 whole entry): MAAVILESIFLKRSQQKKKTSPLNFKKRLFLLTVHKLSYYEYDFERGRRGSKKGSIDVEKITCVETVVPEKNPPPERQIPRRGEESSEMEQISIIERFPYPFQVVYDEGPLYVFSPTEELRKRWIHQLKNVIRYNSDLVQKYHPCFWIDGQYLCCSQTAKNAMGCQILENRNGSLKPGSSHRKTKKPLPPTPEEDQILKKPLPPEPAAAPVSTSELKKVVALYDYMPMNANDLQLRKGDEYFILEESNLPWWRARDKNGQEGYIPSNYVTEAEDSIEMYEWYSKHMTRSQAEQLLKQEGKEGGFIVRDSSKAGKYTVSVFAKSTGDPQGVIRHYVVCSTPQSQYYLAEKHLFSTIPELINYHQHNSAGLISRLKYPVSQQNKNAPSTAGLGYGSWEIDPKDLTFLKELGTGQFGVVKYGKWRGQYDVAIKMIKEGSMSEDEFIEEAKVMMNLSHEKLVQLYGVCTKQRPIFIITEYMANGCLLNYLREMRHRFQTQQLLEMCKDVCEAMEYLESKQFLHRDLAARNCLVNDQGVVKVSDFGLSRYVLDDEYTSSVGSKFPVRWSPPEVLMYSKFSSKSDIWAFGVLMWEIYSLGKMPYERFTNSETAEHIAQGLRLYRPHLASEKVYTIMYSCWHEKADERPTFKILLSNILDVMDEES

| SMILES | pIC50 (BTK) | pIC50 (JAK3) | GI50 ([1]; Homo sapiens, HCC827, 72 h) | GI50 ([2]; Homo sapiens) | GI50 [1] | GI50 [2] |
| --- | --- | --- | --- | --- | --- | --- |
| C=CC(=O)Nc1cccc(Oc2nc(Nc3ccc(N4CCC(N5CCCCC5)CC4)nc3)nc3ccsc23)c1 [Example 152] | ≥ 7.30 | 7.00 to 7.30 |  |  |  |  |
| C=CC(=O)Nc1cccc(Oc2nc(Nc3ccc(S(=O)(=O)NCCN(C)C)cc3)nc3ccsc23)c1 [Example 72] | ≥ 7.30 | ≥ 7.30 | < 50 nM | < 50 nM |  |  |
| C=CC(=O)Nc1cccc(Oc2nc(Nc3ccc(C(=O)NC4CCN(C)CC4)c(C)c3)nc3ccsc23)c1 [Example 145] | ≥ 7.30 | ≥ 7.30 |  |  |  |  |
| C=CC(=O)Nc1cccc(Oc2nc(Nc3ccc([S+](C)[O-])cc3)nc3ccsc23)c1 (stereo not shown) [Example 68] | 7.00 to 7.30 | ≥ 7.30 |  |  |  |  |
| C=CC(=O)Nc1cccc(Oc2nc(Nc3ccc(NC4CCN(C(C)C)CC4)c(F)c3)nc3ccsc23)c1 [Example 130] | 7.00 to 7.30 | ≥ 7.30 | < 50 nM | < 50 nM |  |  |
| C=CC(=O)Nc1cccc(Oc2nc(Nc3ccc(N4CCN(C)CC4)c(Cl)c3)nc3ccsc23)c1 [Example 7] | ≥ 7.30 | 7.00 to 7.30 | < 50 nM | < 50 nM |  |  |
| C=CC(=O)Nc1cccc(Oc2nc(Nc3ccc(CC(=O)NC4CCN(C)CC4)cc3)nc3ccsc23)c1 [Example 103] | ≥ 7.30 | ≥ 7.30 | 100 to 1000 nM | < 50 nM |  |  |
| C=CC(=O)Nc1cccc(Oc2nc(Nc3ccc(N4CC[C@@H](n5ccnc5)C4)cc3)nc3ccsc23)c1 [Example 36] | 7.00 to 7.30 | 7.00 to 7.30 |  |  | 50 to 100 nM | < 50 nM |
| C=CC(=O)Nc1cccc(Oc2nc(Nc3ccc(CN4CCC(O)CC4)cc3)nc3ccsc23)c1 [Example 179] | ≥ 7.30 | ≥ 7.30 |  |  |  |  |
| C=CC(=O)Nc1cccc(Oc2nc(Nc3ccc(CN(CC)CC)cc3)nc3ccsc23)c1 [Example 174] | ≥ 7.30 | 7.00 to 7.30 | < 50 nM | < 50 nM |  |  |
| C=CC(=O)Nc1cccc(Oc2nc(Nc3ccc(N4CCC(CO)CC4)cc3)nc3ccsc23)c1 [Example 40] | 7.00 to 7.30 | 7.00 to 7.30 | < 50 nM | 50 to 100 nM |  |  |
| C=CC(=O)Nc1cccc(Oc2nc(Nc3ccc(C(=O)N4CCN(C5CCN(C)CC5)CC4)cc3)nc3ccsc23)c1 [Example 91] | ≥ 7.30 | 7.00 to 7.30 |  |  |  |  |
| C=CC(=O)Nc1cccc(Oc2nc(Nc3ccc(S(=O)(=O)NC4CCN(C)CC4)cc3)nc3ccsc23)c1 [Example 73] | ≥ 7.30 | 7.00 to 7.30 |  |  |  |  |
| C=CC(=O)Nc1cccc(Oc2nc(Nc3ccc(C(=O)N4CCC(NC)C4)cc3)nc3ccsc23)c1 (stereo not shown) [Example 85] | ≥ 7.30 | ≥ 7.30 |  |  |  |  |
| C=CC(=O)Nc1cccc(Oc2nc(Nc3ccc(CS(C)(=O)=O)cc3)nc3ccsc23)c1 [Example 95] | 7.00 to 7.30 | 7.00 to 7.30 | < 50 nM | < 50 nM |  |  |
| C=CC(=O)Nc1cccc(Oc2nc(Nc3ccc(C(=O)NCCN(C)C)cc3)nc3ccsc23)c1 [Example 79] | ≥ 7.30 | ≥ 7.30 | < 50 nM | 100 to 1000 nM |  |  |
| C=CC(=O)Nc1cccc(Oc2nc(Nc3ccc(C4CCN(C)CC4)c(F)c3)nc3ccsc23)c1 [Example 127] | 7.00 to 7.30 | 7.00 to 7.30 | < 50 nM | < 50 nM |  |  |
| C=CC(=O)Nc1cccc(Oc2nc(Nc3ccc(C4=NCCCN4)cc3)nc3ccsc23)c1 [Example 104] | ≥ 7.30 | ≥ 7.30 |  |  |  |  |
| C=CC(=O)Nc1cccc(Oc2nc(Nc3ccc(C(=O)N4CCOCC4)cc3)nc3ccsc23)c1 [Example 88] | 7.00 to 7.30 | 7.00 to 7.30 |  |  |  |  |
